Measured values published in patent US20030073850A1, “4-Imidazole derivatives of benzyl and restricted benzyl sulfonamides, sulfamides, ureas, carbamates, and amides and their use” (priority 1998, published 2003).
Structures can show the parent of a compound that is named as a salt. Where two headings read alike, the source gives them in different places.

What was measured:
anesthetized dogs [1] = assay: Mean arterial pressure (MAP) in anesthetized dogs; assay type: in vivo, dog; conditions: iv dose causing a maximum increase in MAP of 20 mm Hg, anesthetized female Beagle dogs
From the text: (§1) Female Beagle dogs (Marshall Farms, North Rose, N.Y.) greater that 2 years of age and weighing between 12 and 15 kg were used in these studies. At least 2 weeks prior to any agonist dosing, dogs were instrumented for the chronic measurement of arterial blood pressure by implanting a telemetry transducer/transmitter (TA11PA-C40, Data Sciences International, St. Paul, Minn.) into a carotid artery.
(§2) On the test day, dogs fasted since the previous afternoon were pre-anesthetized with thiopental sodium 15 mg/kg i.v. (Pentothal™, Abbott) and intubated. Anesthesia was maintained by allowing the dog to spontaneously breathe a mixture of isoflurane (2.5 to 3 volume %) and oxygen delivered by a Narkomed Standard anesthesia system (North American Drager, Telford, Pa.). An Abbocath-T™ i.v. catheter (18-G, Abbott) was inserted into the cephalic vein for the administration of agonists. A telemetry receiver (RA1310, DataSciences) was placed under the head of each dog and was interfaced to a computerized data acquisition system (Modular Instruments Inc.(MI2), Malvern, Pa.) which allowed for the continuous calibrated recording of arterial blood pressure which was electronically filtered to determine its mean value (MAP).
(§3) From the resulting dose response curve, an ED5 value, for the dose causing a maximum increase in IUP of 5 mm Hg, could be estimated. An ED20 value for the dose causing a maximum increase in MAP of 20 mm Hg could also be estimated. A selectivity ratio of MAP ED20 vs. IUP ED, was calculated.

[2] = target: T1, α1b (hamster receptor expressed in mouse fibroblasts) (Mesocricetus auratus, UniProt P18841); assay: Radioligand binding, [3H]-prazosin, α1b
T1 construct: expressed in transfected cells; host or cells: mouse fibroblasts
T1 sequence (P18841 1-515): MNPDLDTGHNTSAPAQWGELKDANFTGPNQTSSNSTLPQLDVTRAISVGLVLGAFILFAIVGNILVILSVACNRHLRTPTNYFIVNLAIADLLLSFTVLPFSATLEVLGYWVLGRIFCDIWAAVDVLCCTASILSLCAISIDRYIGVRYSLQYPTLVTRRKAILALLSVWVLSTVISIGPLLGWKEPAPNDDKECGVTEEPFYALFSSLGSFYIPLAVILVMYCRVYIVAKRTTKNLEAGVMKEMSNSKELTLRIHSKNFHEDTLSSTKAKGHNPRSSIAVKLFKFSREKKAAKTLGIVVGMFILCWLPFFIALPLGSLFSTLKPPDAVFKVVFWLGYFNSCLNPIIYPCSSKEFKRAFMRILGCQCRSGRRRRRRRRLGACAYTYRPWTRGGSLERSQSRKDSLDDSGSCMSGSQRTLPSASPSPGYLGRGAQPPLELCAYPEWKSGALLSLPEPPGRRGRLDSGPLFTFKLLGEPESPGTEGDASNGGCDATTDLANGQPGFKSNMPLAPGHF
Experimental: (§4) For purposes of discussing a, adrenoceptor subtypes, the IUPHAR convention of using lower case letters to define molecular clones and upper case letters to indicate pharmacologically defined adrenoceptors has been followed. Compounds of formula I were evaluated in radioligand binding assays specific for α1A (rat submaxillary gland), α1b (hamster receptor expressed in mouse fibroblasts) and α1d (rat receptor expressed in mouse fibroblasts) using [^3H]-prazosin as the radioligand as described in Knepper, et al. J. Pharm.

[3] = target: T2, α1d (rat receptor expressed in mouse fibroblasts) (Rattus norvegicus, UniProt P23944); assay: Radioligand binding, [3H]-prazosin, α1d
T2 construct: expressed in transfected cells; host or cells: mouse fibroblasts
T2 sequence (P23944 1-561): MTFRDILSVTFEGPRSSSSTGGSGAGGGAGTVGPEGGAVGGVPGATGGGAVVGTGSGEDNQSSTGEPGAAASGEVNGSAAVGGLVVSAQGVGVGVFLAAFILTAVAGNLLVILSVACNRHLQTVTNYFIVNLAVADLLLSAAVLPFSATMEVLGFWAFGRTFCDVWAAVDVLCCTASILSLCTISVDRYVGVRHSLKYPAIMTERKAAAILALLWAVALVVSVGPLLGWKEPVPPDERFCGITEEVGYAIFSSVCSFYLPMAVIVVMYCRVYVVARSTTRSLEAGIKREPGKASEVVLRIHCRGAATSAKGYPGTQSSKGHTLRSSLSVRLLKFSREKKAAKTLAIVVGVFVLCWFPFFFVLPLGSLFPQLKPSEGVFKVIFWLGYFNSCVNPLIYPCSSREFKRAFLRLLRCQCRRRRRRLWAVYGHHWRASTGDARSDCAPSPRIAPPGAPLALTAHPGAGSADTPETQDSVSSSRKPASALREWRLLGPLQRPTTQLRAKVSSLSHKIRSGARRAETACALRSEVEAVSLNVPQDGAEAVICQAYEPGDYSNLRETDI
Experimental: as §4

anesthetized dogs [4] = assay: Intraurethral pressure (IUP) in anesthetized dogs; assay type: in vivo, dog; conditions: for ED (5 mm Hg): Canis lupus familiaris, read-out: Mean IUP ED5; for Mean Selectivity Ratio MAP ED20/IUP ED5: anesthetized dogs, iv
From the text: as §1, §2
Dogs with chronic telemetry implants anesthetized as described above were placed in dorsal recumbency and a balloon catheter was inserted into the urethral orifice and advanced approximately 15 cm until the tip was well inside the bladder. The balloon was then inflated with 1 ml of room air and the catheter slowly withdrawn until resistance (corresponding to the bladder neck) was evident. The balloon was then deflated and the catheter withdrawn additional 2 cm. The balloon was then reinflated and its catheter port connected to a Gould Statham P23Dd pressure transducer interfaced to a computerized data acquisition system (Modular Instruments, Inc., Malvern, Pa.) for the measurement of the intraurethral pressure. Increasing iv doses of test agonists were administered and the maximum effect of each dose on IUP was recorded. The effect of each dose was allowed to return to baseline before the next dose was given.
as §3

[5] = target: T3, α1A (rat submaxillary gland) (Rattus norvegicus, UniProt P43140); assay: Radioligand binding, [3H]-prazosin, α1A
T3 construct: α1A (rat submaxillary gland); from tissue; host or cells: rat submaxillary gland
T3 sequence (P43140 1-466): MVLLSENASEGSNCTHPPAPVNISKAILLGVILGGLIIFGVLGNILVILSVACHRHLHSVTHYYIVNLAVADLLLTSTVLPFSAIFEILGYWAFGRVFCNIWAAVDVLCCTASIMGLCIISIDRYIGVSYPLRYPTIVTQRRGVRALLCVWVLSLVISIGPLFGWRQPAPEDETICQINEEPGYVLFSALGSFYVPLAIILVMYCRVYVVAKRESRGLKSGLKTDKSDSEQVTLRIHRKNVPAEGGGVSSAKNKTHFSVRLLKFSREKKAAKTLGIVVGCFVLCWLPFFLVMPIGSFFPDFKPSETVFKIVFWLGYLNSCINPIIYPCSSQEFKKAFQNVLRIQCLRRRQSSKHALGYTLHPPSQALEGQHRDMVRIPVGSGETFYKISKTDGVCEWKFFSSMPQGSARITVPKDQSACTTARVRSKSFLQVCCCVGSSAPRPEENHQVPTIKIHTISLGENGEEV
Experimental: as §4

[6] = iv dose causing a maximum increase in IUP of 5 mm Hg, anesthetized female Beagle dogs
[7] = hamster receptor expressed in mouse fibroblasts, [3H]-prazosin, read-out: Radioligand Binding Ki α1b (Hamster)
[8] = rat receptor expressed in mouse fibroblasts, [3H]-prazosin, read-out: Radioligand Binding Ki α1d (Rat)

Row | SMILES | melting point [°C] | Mean MAP ED20 (anesthetized dogs [1]) [nmol/kg] | ED (5 mm Hg) (anesthetized dogs [4]; [6]) [µmol/kg] | Ki [2, 7] [µM] | other results
1 | CCS(=O)(=O)Nc1cccc2c1CCCC2c1c[nH]cn1.O=C(O)/C=C\C(=O)O (single isomer, unassigned; (-)) [Example 34, (−)-N-[5-(1H-imidazol-4-yl)-5,6,7,8-tetrahydro-1-naphthalenyl]ethanesulfonamide, Maleate] | 129 to 130 |  |  |  | Mean MAP ED20 (anesthetized dogs [1]; Maleate): >1000 nmol/kg; Ki ([2]; hamster receptor expressed in mouse fibroblasts, [3H]-prazosin, Maleate, read-out: Radioligand Binding Ki α1b (Hamster)): 10 µM
2 | CCS(=O)(=O)Nc1cc(Cl)cc2c1CCCC2c1c[nH]cn1 (stereo not shown) [Example 132, N-[3-chloro-5-(1H-imidazol-4-yl)-5,6,7,8-tetrahydro-1-naphthalenyl]ethanesulfonamide] |  | 47.7 | 0.019 |  | Ki [3]: 0.367 µM; Ki [2]: 10 µM; Mean Selectivity Ratio MAP ED20/IUP ED5 (anesthetized dogs [4]): 2.5; Ki [5]: 0.047 µM
3 | O=C(Nc1cccc2c1CCCC2c1c[nH]cn1)C(F)(F)F.O=C(O)/C=C\C(=O)O (stereo not shown) [Example 17, 2,2,2-trifluoro-N-[5-(1H-imidazol-4-yl)-5,6,7,8-tetrahydro-1-naphthalenyl]acetamide, maleate] |  | 216 | 0.188 | 10 | 
4 | CCS(=O)(=O)Nc1cccc2c1CCCC2c1c[nH]cn1.O=C(O)/C=C\C(=O)O (single isomer, unassigned; (+)) [Example 33, (+)-N-[5-(1H-imidazol-4-yl)-5,6,7,8-tetrahydro-1-naphthalenyl]ethanesulfonamide, Maleate] |  |  |  |  | Mean MAP ED20 (anesthetized dogs [1]; Maleate): 34.0 nmol/kg
5 | CS(=O)(=O)Nc1cccc2c1CCC[C@@H]2c1c[nH]cn1 [Example 10, (−)-N-[(5S)-5-(1H-imidazol-4-yl)-5,6,7,8-tetrahydro-1-naphthalenyl]methanesulfonamide] | 118 to 123 | >1000 | > 1 |  | 
6 | CS(=O)(=O)Nc1cccc2c1OCCC2c1c[nH]cn1.O=C(O)/C=C\C(=O)O (single isomer, unassigned; (+)) [Example 93, (+) N-[4-(1H-imidazol-4-yl)-3,4-dihydro-2H-chromen-8-yl]methanesulfonamide Maleate] | 205 to 208 |  | 0.038 |  | 
7 | CN(c1cccc2c1CCCC2c1c[nH]cn1)S(C)(=O)=O.O=C(O)/C=C\C(=O)O (stereo not shown) [Example 15, N-[5-(1H-imidazol-4-yl)-5,6,7,8-tetrahydro-1-naphthalenyl]-N-methylmethanesulfonamide, Maleate] |  | 225 | 0.0919 | 10 | 
8 | CS(=O)(=O)Nc1ccc(F)c2c1CCCC2c1c[nH]cn1.O=C(O)/C=C\C(=O)O (stereo not shown) [Example 44, N-[4-fluoro-5-(1H-imidazol-4-yl)-5,6,7,8-tetrahydro-1-naphthalenyl]methanesulfonamide, Maleate] | 182 to 186 | 588 | 0.892 | 10 | 
9 | COc1ccc(NS(C)(=O)=O)c2c1C(c1c[nH]cn1)CCC2 (stereo not shown) [Example 26, N-[5,6,7,8-tetrahydro-(1H-imidazol-4-yl)-4-methoxy-1-naphthalenyl]methanesulfonamide, Maleate] |  |  |  | 10 | Ki [3, 8]: 10 µM; Mean IUP ED5 (anesthetized dogs [4]; [6]): 653 nmol/kg
10 | CCS(=O)(=O)Nc1cccc2c1CCC2c1c[nH]cn1.O=C(O)/C=C\C(=O)O (stereo not shown) [Example 39, N-[1-(1H-imidazol-4-yl)-2,3-dihydro-1H-inden-4-yl]ethanesulfonamide, Maleate] | 148 to 149 | 5.6 |  |  | 
11 | C=C(c1cccc(NS(=O)(=O)CC)c1)c1c[nH]cn1.O=C(O)/C=C\C(=O)O [Example 45, N-{3-[1-(1H-imidazol-4-yl)vinyl]phenyl}ethanesulfonamide, Maleate] |  | 633 | 0.273 |  | 
12 | CC(=O)Nc1cccc2c1CCCC2c1c[nH]cn1.O=C(O)/C=C\C(=O)O (stereo not shown) [Example 16, N-[5,6,7,8-tetrahydro-5-(1H-imidazol-4-yl)-1-naphthalenyl]acetamide, Maleate] | 159 to 160 | 220 |  |  | 
13 | CCS(=O)(=O)Nc1cc(F)cc2c1OCCC2c1c[nH]cn1.O=C(O)/C=C\C(=O)O (stereo not shown) [Example 80, N-[6-fluoro-4-(1H-imidazol-4-yl)-3,4-dihydro-2H-chromen-8-yl]ethanesulfonamide, Maleate] |  | 125.78 | 0.113 | 10 | Ki [3, 8]: 1.59 µM; Mean Selectivity Ratio MAP ED20/IUP ED5 (anesthetized dogs [4]): 1.12; Ki [5]: 0.378 µM
14 | Cl.Cn1cnc(C2CCCc3c(NS(C)(=O)=O)cccc32)c1 (stereo not shown) [Example 14, N-[5,6,7,8-tetrahydro-5-(1-methyl-1H-imidazol-4-yl)-1-naphthalenyl]methanesulfonamide, Hydrochloride] | 130 to 135 | >1000 |  |  | 
15 | CCS(=O)(=O)Nc1cccc(C(=C(C)C)c2c[nH]cn2)c1 [Example 94, N-{3-[1-(1H-imidazol-4-yl)-2-methyl-1-propenyl]phenyl}ethanesulfonamide] | 152 to 155 |  |  | 1.18 | Ki [3, 8]: 0.173 µM; Ki [5]: 1.94 µM
